Test results: PubChem BioAssay AID258 (DTP/NCI, 2004)
Values joined by “and” are separate entries in the source; they are usually repeats but may differ in a detail not shown here. Equal values may be shown once. Toxic doses and inconclusive results are not listed.

Tested on: CD2F1 mice, L1210 leukemia sc, survival T/C
Test: NCI In Vivo Anticancer Drug Screen. Data for tumor model L1210 Leukemia (subcutaneous) in CD2F1 (CDF1) mice
Settings: endpoint: median survival time, higher = longer survival
Summary of the method: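 Mice with transplanted tumor dosed; survival/tumor size read; T/C vs vehicle controls.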

NC(Cc1ccccc1)C(=O)OCN1C(=O)C2C3C=CC(C2C1=O)C1C2C(=O)N(COC(=O)C(N)Cc4ccccc4)C(=O)C2C31 (configuration not stated)
T/C (dose: 21.6 mg/kg/injection, schedule: Q01DX005 (iv), vehicle: other): 107 % of control | T/C (dose: 21.6 mg/kg/injection, schedule: Q01DX009 (ip), vehicle: other): 111 % of control | T/C (dose: 21.6 mg/kg/injection, schedule: Q01DX009 (ip), vehicle: water): 107 % of control and 121 % of control | T/C (dose: 30.9 mg/kg/injection, schedule: Q01DX005 (iv), vehicle: other): 105 % of control | T/C (dose: 30.9 mg/kg/injection, schedule: Q01DX009 (ip), vehicle: other): 112 % of control | T/C (dose: 30.9 mg/kg/injection, schedule: Q01DX009 (ip), vehicle: water): 107 % of control | T/C (dose: 36.0 mg/kg/injection, schedule: Q01DX009 (ip), vehicle: water): 109 % of control | T/C (dose: 44.1 mg/kg/injection, schedule: Q01DX005 (iv), vehicle: other): 111 % of control | T/C (dose: 44.1 mg/kg/injection, schedule: Q01DX009 (ip), vehicle: other): 114 % of control | T/C (dose: 63.0 mg/kg/injection, schedule: Q01DX005 (iv), vehicle: other): 117 % of control | T/C (dose: 90.0 mg/kg/injection, schedule: Q01DX009 (ip), vehicle: other): 177 % of control | T/C (dose: 90.0 mg/kg/injection, schedule: Q01DX009 (ip), vehicle: water): 169 % of control | T/C (dose: 100.0 mg/kg/injection, schedule: Q01DX009 (ip), vehicle: water): 211 % of control | T/C (dose: 128.6 mg/kg/injection, schedule: Q01DX009 (ip), vehicle: other): 221 % of control | T/C (dose: 128.6 mg/kg/injection, schedule: Q01DX009 (ip), vehicle: water): 227 % of control | T/C (dose: 216.0 mg/kg/injection, schedule: Q01DX009 (oral), vehicle: water): 122 % of control | T/C (dose: 441.0 mg/kg/injection, schedule: Q01DX009 (oral), vehicle: other): 162 % of control | T/C (dose: 630.0 mg/kg/injection, schedule: Q01DX009 (oral), vehicle: other): 234 % of control | T/C (dose: 630.0 mg/kg/injection, schedule: Q01DX009 (oral), vehicle: water): 171 % of control | T/C (dose: 900.0 mg/kg/injection, schedule: Q01DX009 (oral), vehicle: water): 270 % of control

O=c1[nH]c(=O)n(C2CC(O)C(CO)O2)cc1C(F)(F)F (configuration not stated)
T/C (dose: 2.5 mg/kg/injection, schedule: Q01DX009 (ip), vehicle: saline with Tween-80): 106 % of control | T/C (dose: 5.0 mg/kg/injection, schedule: Q01DX009 (ip), vehicle: saline with Tween-80): 114 % of control | T/C (dose: 10.0 mg/kg/injection, schedule: Q01DX009 (ip), vehicle: saline with Tween-80): 117 % of control and 121 % of control | T/C (dose: 10.0 mg/kg/injection, schedule: Q01DX009 (sc), vehicle: saline): 111 % of control and 122 % of control | T/C (dose: 13.3 mg/kg/injection, schedule: Q01DX009 (sc), vehicle: saline with Tween-80): 122 % of control | T/C (dose: 20.0 mg/kg/injection, schedule: Q01DX009 (sc), vehicle: saline): 111 % of control | T/C (dose: 40.0 mg/kg/injection, schedule: Q01DX009 (ip), vehicle: saline with Tween-80): 153 % of control | T/C (dose: 40.0 mg/kg/injection, schedule: Q01DX009 (sc), vehicle: saline): 118 % of control and 123 % of control | T/C (dose: 60.0 mg/kg/injection, schedule: Q01DX009 (ip), vehicle: saline with Tween-80): 156 % of control | T/C (dose: 60.0 mg/kg/injection, schedule: Q01DX009 (sc), vehicle: saline with Tween-80): 152 % of control | T/C (dose: 80.0 mg/kg/injection, schedule: Q01DX009 (ip), vehicle: saline with Tween-80): 150 % of control | T/C (dose: 80.0 mg/kg/injection, schedule: Q01DX009 (sc), vehicle: saline with Tween-80): 154 % of control | T/C (dose: 90.0 mg/kg/injection, schedule: Q01DX009 (sc), vehicle: saline with Tween-80): 167 % of control | T/C (dose: 105.0 mg/kg/injection, schedule: Q01DX009 (sc), vehicle: saline with Tween-80): 150 % of control | T/C (dose: 120.0 mg/kg/injection, schedule: Q01DX009 (sc), vehicle: saline with Tween-80): 158 % of control and 162 % of control | T/C (dose: 135.0 mg/kg/injection, schedule: Q01DX009 (sc), vehicle: saline with Tween-80): 162 % of control | T/C (dose: 160.0 mg/kg/injection, schedule: Q01DX009 (ip), vehicle: saline with Tween-80): 121 % of control | T/C (dose: 160.0 mg/kg/injection, schedule: Q01DX009 (sc), vehicle: saline): 120 % of control | T/C (dose: 180.0 mg/kg/injection, schedule: Q01DX009 (sc), vehicle: saline with Tween-80): 120 % of control | T/C (dose: 180.0 mg/kg/injection, schedule: Q01DX009 (sc), vehicle: saline): 161 % of control | T/C (dose: 211.2 mg/kg/injection, schedule: Q01DX009 (sc), vehicle: saline with Tween-80): 151 % of control | T/C (dose: 240.0 mg/kg/injection, schedule: Q01DX009 (sc), vehicle: saline): 158 % of control | T/C (dose: 320.0 mg/kg/injection, schedule: Q01DX009 (ip), vehicle: saline with Tween-80): 108 % of control | T/C (dose: 320.0 mg/kg/injection, schedule: Q01DX009 (sc), vehicle: saline with Tween-80): 156 % of control | T/C (dose: 320.0 mg/kg/injection, schedule: Q01DX009 (sc), vehicle: saline): 119 % of control | T/C (dose: 960.0 mg/kg/injection, schedule: Q01DX009 (sc), vehicle: saline with Tween-80): 122 % of control

Nc1ccc(C(=O)O)cn1
T/C (dose: 14.0 mg/kg/injection, schedule: Q01DX Z (sc), vehicle: other): 100 % of control | T/C (dose: 23.0 mg/kg/injection, schedule: Q01DX Z (sc), vehicle: other): 100 % of control | T/C (dose: 37.0 mg/kg/injection, schedule: Q01DX Z (sc), vehicle: other): 100 % of control | T/C (dose: 65.0 mg/kg/injection, schedule: Q01DX Z (sc), vehicle: other): 111 % of control | T/C (dose: 108.0 mg/kg/injection, schedule: Q01DX Z (sc), vehicle: other): 100 % of control | T/C (dose: 180.0 mg/kg/injection, schedule: Q01DX Z (sc), vehicle: other): 111 % of control

COC(=O)C1(F)C(=O)NC(=O)NC1OC (configuration not stated)
T/C (dose: 50.0 mg/kg/injection, schedule: Q01DX009 (ip), vehicle: Klucel (hydroxypropylcellulose) (HPC)): 110 % of control | T/C (dose: 100.0 mg/kg/injection, schedule: Q01DX009 (ip), vehicle: Klucel (hydroxypropylcellulose) (HPC)): 120 % of control | T/C (dose: 120.0 mg/kg/injection, schedule: Q01DX009 (ip), vehicle: Klucel (hydroxypropylcellulose) (HPC)): 163 % of control | T/C (dose: 200.0 mg/kg/injection, schedule: Q01DX009 (ip), vehicle: Klucel (hydroxypropylcellulose) (HPC)): 159 % of control | T/C (dose: 333.33 mg/kg/injection, schedule: Q01DX009 (ip), vehicle: Klucel (hydroxypropylcellulose) (HPC)): 120 % of control | T/C (dose: 400.0 mg/kg/injection, schedule: Q01DX009 (ip), vehicle: Klucel (hydroxypropylcellulose) (HPC)): 105 % of control | T/C (dose: 555.56 mg/kg/injection, schedule: Q01DX009 (ip), vehicle: Klucel (hydroxypropylcellulose) (HPC)): 110 % of control | T/C (dose: 800.0 mg/kg/injection, schedule: Q01DX009 (ip), vehicle: Klucel (hydroxypropylcellulose) (HPC)): 98 % of control

COc1cc([C@@H]2c3cc4c(cc3[C@H](OC(C)=O)[C@H]3COC(=O)[C@@H]23)OCO4)cc(OC)c1OC
T/C (dose: 500.0 mg/kg/injection, schedule: Q01DX Z (sc), vehicle: methylcellulose (MC)): 100 % of control

Cc1c(-c2ccc(-c3ccccc3F)cc2)nc2ccc(F)cc2c1C(=O)O
T/C (dose: 12.5 mg/kg/injection, schedule: Q01DX009 (ip), vehicle: saline): 153 % of control | T/C (dose: 25.0 mg/kg/injection, schedule: Q01DX009 (ip), vehicle: saline): 156 % of control | T/C (dose: 50.0 mg/kg/injection, schedule: Q01DX009 (ip), vehicle: saline): 150 % of control

Cc1cc(NCCCCCCCNc2cc(C)nc3cc(N)ccc23)c2ccc(N)cc2n1
T/C (dose: 1.56 mg/kg/injection, schedule: Q01DX009 (ip), vehicle: water): 100 % of control and 104 % of control and 98 % of control | T/C (dose: 3.12 mg/kg/injection, schedule: Q01DX009 (ip), vehicle: water): 109 % of control and 110 % of control and 121 % of control | T/C (dose: 6.25 mg/kg/injection, schedule: Q01DX009 (ip), vehicle: water): 120 % of control | T/C (dose: 12.5 mg/kg/injection, schedule: Q01DX009 (ip), vehicle: water): 156 % of control and 175 % of control | T/C (dose: 25.0 mg/kg/injection, schedule: Q01DX009 (ip), vehicle: water): 120 % of control

ONc1ncnc2nc[nH]c12
T/C (dose: 50.0 mg/kg/injection, schedule: Q01DX Z (sc), vehicle: steriod suspending solution): 112 % of control | T/C (dose: 100.0 mg/kg/injection, schedule: Q01DX Z (sc), vehicle: steriod suspending solution): 118 % of control | T/C (dose: 400.0 mg/kg/injection, schedule: Q01DX Z (sc), vehicle: steriod suspending solution): 168 % of control
